Assay results as given in the supplement of paper PMC9663587.

Experiments:
Assay in all cases: GR value, 72 h; higher = faster growth (1 = untreated, <0 = killing);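 note: breast cancer and non-malignant breast epithelial lines, nine half-log doses, viable cells counted by Hoechst and LIVE/DEAD dye imaging versus time-zero plates and DMSO controls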
[1] = compound: CCc1cnn2c(NCc3ccc[n+]([O-])c3)cc(N3CCCC[C@H]3CCO)nc12
Neratinib/HKI272 = compound: CCOc1cc2ncc(C#N)c(Nc3ccc(OCc4ccccn4)c(Cl)c3)c2cc1NC(=O)/C=C/CN(C)C [Neratinib/HKI272]
[2] = compound: CCN1CCN(Cc2ccc(Nc3ncc(F)c(-c4cc(F)c5nc(C)n(C(C)C)c5c4)n3)nc2)CC1
THZ531 = compound: CN(C)C/C=C/C(=O)Nc1ccc(C(=O)N2CCC[C@@H](Nc3ncc(Cl)c(-c4c[nH]c5ccccc45)n3)C2)cc1 [THZ531]
LEE011/Ribociclib = compound: CN(C)C(=O)c1cc2cnc(Nc3ccc(N4CCNCC4)cn3)nc2n1C1CCCC1 [LEE011/Ribociclib]
THZ1 = compound: CN(C)C/C=C/C(=O)Nc1ccc(C(=O)Nc2cccc(Nc3ncc(Cl)c(-c4c[nH]c5ccccc45)n3)c2)cc1 [THZ1]

SUM149
GR value ([1]; 0.1 µM): -0.575 GR
GR value ([1]; 0.3162 µM): -0.578 GR
GR value ([1]; 1 µM): -0.561 GR
GR value (Neratinib/HKI272; 0.0003162 µM): 1.04 GR
GR value (Neratinib/HKI272; 0.001 µM): 1.01 GR
GR value (Neratinib/HKI272; 0.003162 µM): 1.02 GR
GR value (Neratinib/HKI272; 0.01 µM): 0.895 GR
GR value (Neratinib/HKI272; 0.03162 µM): 0.663 GR
GR value (Neratinib/HKI272; 0.1 µM): 0.408 GR
GR value (Neratinib/HKI272; 0.3162 µM): 0.251 GR
GR value (Neratinib/HKI272; 1 µM): 0.199 GR
GR value (Neratinib/HKI272; 3.162 µM): 0.144 GR
GR value ([2]; 0.001 µM): 0.973 GR
GR value ([2]; 0.003162 µM): 1.02 GR
GR value ([2]; 0.01 µM): 0.875 GR
GR value ([2]; 0.03162 µM): 0.751 GR
GR value ([2]; 0.1 µM): 0.666 GR
GR value ([2]; 0.3162 µM): 0.562 GR
GR value ([2]; 1 µM): 0.417 GR
GR value ([2]; 3.162 µM): 0.375 GR
GR value ([2]; 10 µM): 0.0944 GR
GR value (THZ531; 0.0001 µM): 0.986 GR
GR value (THZ531; 0.0003162 µM): 0.996 GR
GR value (THZ531; 0.001 µM): 0.931 GR
GR value (THZ531; 0.003162 µM): 1.03 GR
GR value (THZ531; 0.01 µM): 1.05 GR
GR value (THZ531; 0.03162 µM): 0.999 GR
GR value (THZ531; 0.1 µM): 0.963 GR
GR value (THZ531; 0.3162 µM): 0.598 GR
GR value (THZ531; 1 µM): -0.539 GR
GR value (LEE011/Ribociclib; 0.001 µM): 0.951 GR
GR value (LEE011/Ribociclib; 0.003162 µM): 0.904 GR
GR value (LEE011/Ribociclib; 0.01 µM): 0.916 GR
GR value (LEE011/Ribociclib; 0.03162 µM): 0.885 GR
GR value (LEE011/Ribociclib; 0.1 µM): 0.776 GR
GR value (LEE011/Ribociclib; 0.3162 µM): 0.771 GR
GR value (LEE011/Ribociclib; 1 µM): 0.764 GR
GR value (LEE011/Ribociclib; 3.162 µM): 0.669 GR
GR value (LEE011/Ribociclib; 10 µM): 0.599 GR
GR value (THZ1; 0.0001 µM): 0.968 GR
GR value (THZ1; 0.0003162 µM): 0.963 GR
GR value (THZ1; 0.001 µM): 1.04 GR
GR value (THZ1; 0.003162 µM): 0.927 GR
GR value (THZ1; 0.01 µM): 0.923 GR
GR value (THZ1; 0.03162 µM): 0.704 GR
GR value (THZ1; 0.1 µM): 0.165 GR
GR value (THZ1; 0.3162 µM): -0.351 GR
GR value (THZ1; 1 µM): -0.506 GR
